Results from patent US20110269817A1, “COMPOSITIONS AND METHODS RELATED TO SIRT1 FUNCTION” (The Regents of the University of California, priority 2008, published 2011).
“Also recorded” adds a separate entry of the source. Read-outs that look alike come from different tables or passages of the source.

Tests used:
[1] = test system: CLOCK-SIRT1 interaction; assay: CLOCK-SIRT1 interaction (coimmunoprecipitation) in transfected JEG3 cells; type: cell-based, human; conditions: treated 1, 2 and 6 h, 1 mM NAD+, 10 mM glucose, 1 mM pyruvate, 100 μM DFO, 100 μM resveratrol, 120 μM splitomicin
Method: The effect of various agents on the CLOCK-SIRT1 interaction was analyzed. […] JEG3 cells were cultured in BME containing 10% FBS and transfected with Myc-CLOCK, Myc-BMAL1, and Flag-SIRT1 constructs. Negative control (NC) represents cells transfected only with Myc-CLOCK and Myc-BMAL1. 24 h after transfection cells were replated, allowed to readhere for another 16 hours, and treated with indicated reagents for 1, 2 and 6 hours. Here the results with 6 h treatment are shown, the same results were obtained at 1 h and 2 h. Nuclear extracts were processed as previously described (Hirayama et al. 2007). This experiment was performed 3 times and a representative result is shown.
Legend: Lane 1: control (C); lane 2: 50% horse serum (HS); lane 3: 1 mM NAD^+ (NAD^+); lane 4: 10 mM glucose (Glc); lane 5: 1 mM pyruvate (Pyr); 6: 100 μM DFO (DF); lane 7: 100 μM resveratrol; (Res) lane 8:120 μM splitomicin (Split). Lane 9: negative control (NC).

[2] = molecular target: T1, SIRT1 (Homo sapiens, UniProt Q96EB6); assay: BMAL1 deacetylation by SIRT1 in JEG3 cells transfected with Myc-CLOCK, Flag-Myc-BMAL1 and SIRT1-HA; type: cell-based; conditions: 1 mM NAD+ or 10 mM NAM for 16 hr
T1 construct: expressed in transfected cells; host or cells: JEG3
T1 sequence (Q96EB6 1-747): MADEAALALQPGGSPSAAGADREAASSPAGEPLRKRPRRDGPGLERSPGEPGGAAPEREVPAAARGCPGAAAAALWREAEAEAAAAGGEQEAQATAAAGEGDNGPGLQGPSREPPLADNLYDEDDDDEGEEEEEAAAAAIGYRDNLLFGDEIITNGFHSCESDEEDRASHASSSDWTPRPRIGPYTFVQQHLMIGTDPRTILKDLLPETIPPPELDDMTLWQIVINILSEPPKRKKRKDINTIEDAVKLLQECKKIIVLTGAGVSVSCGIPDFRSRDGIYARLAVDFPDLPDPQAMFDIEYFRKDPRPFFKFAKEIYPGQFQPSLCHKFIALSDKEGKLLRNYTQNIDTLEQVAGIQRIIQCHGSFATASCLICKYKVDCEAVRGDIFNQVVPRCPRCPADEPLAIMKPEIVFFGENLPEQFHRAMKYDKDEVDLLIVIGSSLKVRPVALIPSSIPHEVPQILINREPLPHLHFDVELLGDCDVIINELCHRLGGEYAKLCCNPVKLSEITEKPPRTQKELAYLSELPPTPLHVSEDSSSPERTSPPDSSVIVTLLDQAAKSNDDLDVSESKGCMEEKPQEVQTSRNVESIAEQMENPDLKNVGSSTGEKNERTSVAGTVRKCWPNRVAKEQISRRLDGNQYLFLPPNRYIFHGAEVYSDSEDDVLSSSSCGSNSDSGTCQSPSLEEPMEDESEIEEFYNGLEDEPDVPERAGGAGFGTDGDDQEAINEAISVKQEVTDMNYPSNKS
Method: (D) Deacetylation of BMAL1 by SIRT1 is NAD^+ dependent manner. JEG3 cells transfected with Myc-CLOCK and Flag-Myc-BMAL1 and SIRT1-HA were treated with 1 mM NAD^+ or 10 mM NAM for 16 hr before harvest. Immunoprecipitated BMAL1 proteins by FLAG antibody were probed with acetylated BMAL1 antibody. SIRT1 protein amount was detected by SIRT1 antibody.
(§1) Recently we have reported that BMAL1 is rhythmically acetylated by CLOCK and that this event is essential for control of circadian function (Hirayama et al., 2007). We have generated an antibody that specifically recognizes acetylated BMAL1 at Lys537 (FIG. 10). Because of the interplay between CLOCK and SIRT1, we suspected that the deacetylase that could regulate the dynamic levels of BMAL1 acetylation could be SIRT1. To identify which class of HDAC is responsible for deacetylation of BMAL1, we treated cultured cells expressing Myc-CLOCK and Flag-Myc-BMAL1 with class I and II inhibitor, trichostatin A (TSA), and/or class III inhibitor, NAM, for 6 hr and 16 hr, respectively. […] We then coexpressed BMAL1 with CLOCK and confirmed that the anti-AcBMAL1 antibody readily recognizes CLOCK-induced acetylation at Lys537 (FIG. 6B). […] We also confirmed that SIRT1 readily deacetylates BMAL1 in an in vitro deacetylation assay (FIG. 11).

[3] = test system: dbp expression levels in WT MEFs; assay: dbp circadian expression in serum-shocked WT MEFs treated with SIRT1 inhibitors, quantitative PCR; type: cell-based, mouse
Method: (A) Dbp expression levels in MEFs either treated with SIRT1 inhibitors (10 mMNAM or […]) or not were analyzed by quantitative PCR. The value at time 20 in MEFs without treatment was set to 1.
(§2) MEFs were generated from WT or homozygous Sirt1−/− sibling mice and cultured in DMEM (4.5 g/l glucose) supplemented with 7.5% newborn bovine serum, 2.5% FBS, and antibiotics. JEG3 cells were grown in Basal Medium Eagle supplemented with 10% FBS and antibiotics.
Each quantitative real-time RT-PCR was performed using the Chromo4 real time detection system (BIO-RAD). The PCR primers for mDbp mRNA, mPer2 mRNA, mCry 1 mRNA, 18S rRNA, Dbp UP, Dbp E-box, Dbp 30R, and mSIRT1 mRNA were described (Ripperger and Schibler, 2006; Rodgers et al., 2005; Yamamoto et al., 2004). PCR primers for Dbp TSS were designed using Real-Time PCR Primer Design (https://www.genscript.com/ssl-bin/app/primer), and the sequences are available upon request. For a […] PCR, 50 ng of cDNA template was mixed with the primers to final concentrations of 200 nM and […] of iQ SYBR Green Supermix (BIO-RAD), respectively. The reaction was first incubated at 95° C. for 3 min, followed by 40 cycles at 95° C. for 30 s and 60° C. for 1 min.

[4] = test system: Sirt1−/− MEFs; assay: circadian gene expression in serum-shocked Sirt1−/− MEFs treated with SIRT1 inhibitors; type: cell-based, mouse
Method: as §2

[5] = test system: histone H3 Lys9/Lys14 acetylation at the Dbp transcription start site; assay: ChIP assay of histone H3 (Lys9/Lys14) acetylation at dbp TSS in serum-shocked MEFs; type: cell-based, mouse; conditions: WT MEFs after serum shock, 10 mM NAM or
Method: (B-D) Crosslinked cell extracts were isolated from MEF without treatment (B) or with SIRT1 inhibitors, 10 mMNAM (C), or […] (D) at indicated time points after serum shock, subjected to ChIP assay, and analyzed by quantitative PCR with dbp TSS primers (See FIG. 4C). Results of semiquantitative PCR are also shown at the bottom of each experiment. The value at time 16 in MEFs without treatment was set to 1. All data presented are the means±SEM of three independent samples.
Conventional ChIP assay was used for histones from MEFs (Yamamoto et al., 2004). For nonhistone proteins, dual crosslinking ChIP assay (Nowak et al., 2005) was used with slight modifications. After serum shock, cells were washed three times with room temperature PBS, then PBS/1 mM MgCl2 was added. Disuccinimidyl Glutalate (DSG) was added to a final concentration of 2 mM for crosslinking. After 45 min at room temperature, formaldehyde was added to a final concentration of 1% (v/v) and cells incubated for 15 min. […]
We analyzed the acetylation at Lys9 and Lys14 of histone H3 because we had previously found these to be preferential sites of CLOCK's HAT activity (Doi et al., 2006), and also because SIRT1 deacetylase function was described to be targeted to these lysines (Imai et al., 2000). […]

[6] = test system: BMAL1 Lys537 acetylation; assay: BMAL1 Lys537 acetylation in JEG3 cells expressing Myc-CLOCK and Flag-Myc-BMAL1, HDAC inhibitor treatment; type: cell-based, human; conditions: NAM (10 mM) 16 hr
Method: (A) Class III HDAC inhibitor enhances BMAL1 Lys537 acetylation. JEG3 cells transfected with Myc-CLOCK and Flag-Myc-BMAL1 were treated with HDAC I and II inhibitor, TSA […], for 6 hr and HDAC III inhibitor, NAM (10 mM), for 16 hr before harvest. Immunoprecipitated BMAL1 proteins by FLAG antibody were subjected to SDS-PAGE and probed with acetylated BMAL1 or Myc antibodies.
as §1

Structure (SMILES) | modulation of the CLOCK-SIRT1 interaction [1] | BMAL1 deacetylation by SIRT1 [2] | circadian acetylation of histone H3 Lys9/Lys14 at Dbp TSS [5] | further results
NC(=O)c1ccc[n+]([C@@H]2O[C@H](COP(=O)([O-])OP(=O)(O)OC[C@H]3O[C@@H](n4cnc5c(N)ncnc54)[C@H](O)[C@@H]3O)[C@@H](O)[C@H]2O)c1 [NAD^+, nicotinamide adenine dinucleotide] | not significantly modulated | responsive | – | –
NC(=O)c1cccnc1 [NAM, nicotinamide] | – | significantly attenuated | loss in the circadian oscillation of acetylation, generating a noncyclic, high level of Lys9/Lys14 acetylation | dbp expression pattern (circadian oscillation) ([3]; WT MEFs after serum shock, 10 mM NAM or splitomicin): significantly broader phase and higher amplitude in the oscillation; also recorded: loss in stringency of circadian gene expression; effect of SIRT1 inhibitors on circadian gene expression in Sirt1−/− MEFs [4]: no effect; acetylation of BMAL1 at Lys537 [6]: significantly increased
CC(=O)N(O)CCCCCNC(=O)CCC(=O)N(O)CCCCCNC(=O)CCC(=O)N(O)CCCCCN [desferroxamine] | not significantly modulated | – | – | –
Oc1ccc(C=Cc2cc(O)cc(O)c2)cc1 [resveratrol] | not significantly modulated | – | – | –
O=C1CCc2c(ccc3ccccc23)O1 [splitomicin] | not significantly modulated | – | loss in the circadian oscillation of acetylation, generating a noncyclic, high level of Lys9/Lys14 acetylation | dbp expression pattern (circadian oscillation) [3]: significantly broader phase and higher amplitude in the oscillation; also recorded: loss in stringency of circadian gene expression; effect of SIRT1 inhibitors on circadian gene expression in Sirt1−/− MEFs ([4]; Sirt1−/− MEFs, data not shown): no effect
